Data on 20 compounds can be found in publication PMC11110238, “Synthesis of novel carbazole hydrazine-carbothioamide scaffold as potent antioxidant, anticancer and antimicrobial agents” (BMC Chemistry, 2024).

≈ marks a conversion by molar mass, not a printed value. Marks after values point to notes of the source that are not given here. Some results are limits rather than exact numbers.

The term IC50 denotes the concentration that gives 50% inhibition. One may read the melting point as the temperature of the solid-liquid transition.

In one data set the test system is MCF-7 cell line. Put plainly: MTT cell viability, MCF-7 cancer cell line. In kind it is cell-based. The note with it: Homo sapiens, MCF7; MTT, 48 h; read-out: IC50 values Carbazole Derivatives Effect on MCF-7 Cell Line. Here is the method: MCF-7 cancer cell lines were cultured at Dulbecco’s Modified Eagle Medium High Glucose (DMEM) (EuroClone, Via Figino, Italy); fetal bovine serum (FBS) and MTT (3-(4,5-Dimethylthiazol-2-yl)-2,5-Diphenyl Tetrazolium Bromide) were provided by Sigma-Aldrich (Darmstadt, Germany); ApopNexin Annexin-V-FITC with PI Apoptosis Kit was obtained from Merck (Darmstadt, Germany); Total RNA Isolation Kit was provided by Analytic Jena (Jena, Germany), SensiFast cDNA Synthesis Kit was provided by Meridian Bioscience (Cincinati, USA), SybrGreen Master Mix was obtained from EuroClone (Via Figino, Italy).
Cells (MCF-7 and L929) were incubated in 75 cm^2 sterile flasks with 10% FBS, 100 U/mL penicillin, and 100 µg/mL streptomycin. The cells were grown at 37 ^○C in 5% CO2, and MTT was used to screen the viability of the cells. Cells were seeded at a density of 10^4 cells per well. The cells were then cultured for 24 h in 100 µl of DMEM complete medium. After pretreatment with different concentrations of the compounds for 48 h, 10 µl of 5 mg/mL MTT solution was added to each well and incubated for 4 h at 37 ^○C, and 100 µl of DMSO was used in each well to dissolve the blue formazan crystals. Then, the absorbance was measured at 570 nm. The cell viability percentages of compound 4o against MCF-7 cancer cell lines and L929 normal cell lines were presented in Fig. 2 in comparison with doxorubicin anticancer agent.

Data set [1] can be described thus: DPPH radical scavenging assay. In kind it is biochemical. The note with it: 30 min, 517 nm. The procedure:
To estimate the Carbazole derivatives' antioxidant potential, a solution of each compound (1 mM/mL) in methanol was serially diluted with methanol to obtain a concentration of 1, 2, 5, 10, 20, 50, and 100 µM/mL. Then, DPPH (2,2-diphenyl-1-picrylhydrazyl) reagent (Sigma, USA) was dissolved in 0.002% w/v methanol and mixed with the previously prepared working concentrations in a 1:1 ratio. The same procedures were repeated for Trolox (Sigma-Aldrich, Denmark), which was used as a positive control. All of the solutions were kept in the dark chamber for 30 min at an ordinary temperature. Then, their absorbance values were measured at a wavelength of 517 nm utilizing a UV–visible spectrophotometer. The DPPH inhibition potentials by Carbazole derivatives and Trolox were determined employing the following equation: DPPH inhibition(\%)=abs(blank)-abs(sample)/abs(blank)∗100\% where absblank is the blank absorbance and abssample is the absorbance of the samples [58]. The antioxidant half-maximal inhibitory concentration (IC50) of the synthesized carbazole derivatives and Trolox were assessed by using an online tool “Quest Graph™ IC50 Calculator.” AAT Bioquest, Inc., 25 May. 2023, https://www.aatbio.com/tools/ic50-calculator.
(Loss of DPPH colour is used to gauge radical scavenging.)

In a further data set the test system is Staphylococcus aureus. In words: MIC and MBC test, S. aureus. In kind it is cell-based. Here is the method:
(§1) Using Muller Hinton agar medium, the antibacterial activity was evaluated by using 24 h cultures of Escherichia coli, Staphylococcus aureus, and Candida albicans. E. coli and S. aureus were incubated in 1% Mueller Hinton Broth (MHB) liquid medium at 37 °C for 24 h; C. albicans was incubated in Sabouraud Dextrose Broth (SDB) at 30 °C for 48 h. MIC (Minimum Inhibitory Concentration) and MBC (Minimum Bactericidal Concentration) tests were performed to determine antimicrobial activity. This stage was carried out in a sterile cabinet.
(§2) The density of microorganisms in fresh cultures was adjusted according to the MacFarland 0.5 scale. For that, the microorganisms were centrifuged at 4000 rpm for 20 min. The supernatant was poured off, and the pellet was washed with 1 mL of 0.9% NaCl solution (physiological saline). The centrifugation was then repeated. The pellet was dissolved again with saline solution and adjusted to 0.5 MacFarland. In the experiment performed in a sterile 96-well plate, compound 4o was diluted ½ with DMSO to prepare a stock solution. In the first, 100 µl of medium and 100 µl of compound 4o as initial dilutions. Dilution was performed seven times at a ratio of ½. Then, 5 µl of fresh microorganism cultures prepared as MacFarland 0.5 were inoculated. The control group was prepared as 100 µl medium, 100 µl distilled water, and 5 µl microorganisms. The plates were incubated at 37 °C and 30 °C for 24 h.
(§3) After incubation, 10 µl of the sample was taken, dropped onto the respective media, and incubated for 24 h at appropriate temperatures to clearly distinguish the residues left by the compound 4o and the growth of microorganisms. Mueller Hinton Agar (MHA) was used for E. coli and S. aureus, and Potato Dextrose Agar (PDA) was used for C. albicans. After incubation, MIC and MBC values were determined. The first well with a significant decrease in growth was considered as MIC, and the first well with no growth was considered as MBC [59, 60].

Another data set has as its system Escherichia coli. In words: MIC and MBC test, E. coli. The data set is classed as cell-based. Here is the method: as §1, §2, §3
The next data set concerns Candida albicans. Put plainly: MIC and MBC test, C. albicans. In kind it is cell-based. Here is the method: as §1, §2, §3

`O=C(Cn1c2ccccc2c2ccccc21)NNC(=S)Nc1ccccc1` [Compound 4a, 2-(2-(9H-carbazol-9-yl)acetyl)-N-phenylhydrazine-1-carbothioamide] had a melting point of 235 to 237 °C. Also, the half-inhibitory concentration (IC50) with MCF-7 cell line was greater than 20 µM. Also, inhibition in data set [1] was half-maximal at 52.1 ± 2.42 µM (IC50).
As for `COc1cccc(NC(=S)NNC(=O)Cn2c3ccccc3c3ccccc32)c1` [Compound 4b, 2-(2-(9H-carbazol-9-yl)acetyl)-N-(3-methoxyphenyl)hydrazine-1-carbothioamide], the melting point lay in the range of 218 to 220 °C. The IC50 with MCF-7 cell line is greater than 20 µM. In data set [1], this compound showed a 50% inhibitory concentration (IC50) of 5.15 ± 1.02 µM.
In the case of `O=C(Cn1c2ccccc2c2ccccc21)NNC(=S)NCCCN1CCOCC1` [Compound 4c, 2-(2-(9H-carbazol-9-yl)acetyl)-N-(3-morpholinopropyl)hydrazine-1-carbothioamide], the melting point lay in the range of 189 to 191 °C. Besides, the IC50 with MCF-7 cell line was greater than 20 µM. For the same compound, in data set [1], half-maximal inhibition (IC50) required 8.99 ± 2.17 µM.
For `O=C(Cn1c2ccccc2c2ccccc21)NNC(=S)Nc1cccc2ccccc12` [Compound 4d, 2-(2-(9H-carbazol-9-yl)acetyl)-N-(naphthalen-1-yl)hydrazine-1-carbothioamide], in that order: 222 to 224 °C, greater than 20 µM and 29.7 ± 1.77 µM.
For `O=C(Cn1c2ccccc2c2ccccc21)NNC(=S)Nc1ccc([N+](=O)[O-])cc1` [Compound 4e, 2-(2-(9H-carbazol-9-yl)acetyl)-N-(4-nitrophenyl)hydrazine-1-carbothioamide] the same measures were 235 to 237 °C, greater than 20 µM and 50.8 ± 1.88 µM.
For `COc1ccc(NC(=S)NNC(=O)Cn2c3ccccc3c3ccccc32)cc1` [Compound 4f, 2-(2-(9H-carbazol-9-yl)acetyl)-N-(4-methoxyphenyl)hydrazine-1-carbothioamide], in that order: 210 to 212 °C, greater than 20 µM and 3.41 ± 1.05 µM.
With `O=C(Cn1c2ccccc2c2ccccc21)NNC(=S)Nc1ccc(Br)cc1` [Compound 4g, 2-(2-(9H-carbazol-9-yl)acetyl)-N-(4-bromophenyl)hydrazine-1-carbothioamide], the melting point is 255 to 257 °C. Also, the IC50 in the data set on MCF-7 cell line is greater than 20 µM. Besides, half-maximal inhibition in data set [1] (IC50) was put at 4.14 ± 0.75 µM.
As for `O=C(Cn1c2ccccc2c2ccccc21)NNC(=S)Nc1ccc(Cl)cc1` [Compound 4h, 2-(2-(9H-carbazol-9-yl)acetyl)-N-(4-chlorophenyl)hydrazine-1-carbothioamide], the melting point was in the range of 235 to 237 °C. For the same compound, the IC50 in the data set with MCF-7 cell line was greater than 20 µM. In data set [1], 0.73 ± 0.54 µM corresponded to half-maximal inhibition (IC50).
For `O=C(Cn1c2ccccc2c2ccccc21)NNC(=S)Nc1ccc(C(F)(F)F)cc1` [Compound 4k, 2-(2-(9H-carbazol-9-yl)acetyl)-N-(4-(trifluoromethyl)phenyl)hydrazine-1-carbothioamide], in that order: 177 to 179 °C, greater than 20 µM and 2.08 ± 0.72 µM.
For `O=C(Cn1c2ccccc2c2ccccc21)NNC(=S)NC1CCCCC1` [Compound 4m, 2-(2-(9H-carbazol-9-yl)acetyl)-N-cyclohexylhydrazine-1-carbothioamide], in that order: 211 to 213 °C, greater than 20 µM and 2.37 ± 1.7 µM.
For `Cc1ccc(NC(=S)NNC(=O)Cn2c3ccccc3c3ccccc32)cc1` [Compound 4n, 2-(2-(9H-carbazol-9-yl)acetyl)-N-(p-tolyl)hydrazine-1-carbothioamide] the same measures were 180 to 182 °C, greater than 20 µM and 1.52 ± 0.58 µM.
As for `O=C(Cn1c2ccccc2c2ccccc21)NNC(=S)NCc1ccccc1` [Compound 4p, 2-(2-(9H-carbazol-9-yl)acetyl)-N-benzylhydrazine-1-carbothioamide], the melting point lay in the range of 169 to 171 °C. Also, in the data set with MCF-7 cell line, the IC50 is greater than 20 µM. The IC50 in data set [1] is 10.2 ± 1.85 µM.
For `O=C(Cn1c2ccccc2c2ccccc21)NNC(=S)NC1CC2CCC1C2` (centres unmarked) [Compound 4r, 2-(2-(9H-carbazol-9-yl)acetyl)-N-(bicyclo[2.2.1]heptan-2-yl)hydrazine-1-carbothioamide] the same measures were 199 to 201 °C, 4.99 ± 0.42 µM and 19.9 ± 1.55 µM.
For `O=C(Cn1c2ccccc2c2ccccc21)NNC(=S)NCCc1ccccc1` [Compound 4s, 2-(2-(9H-carbazol-9-yl)acetyl)-N-phenethylhydrazine-1-carbothioamide], in that order: 170 to 172 °C, greater than 20 µM and 3.05 ± 1.75 µM.
For `CC(C)NC(=S)NNC(=O)Cn1c2ccccc2c2ccccc21` [Compound 4t, 2-(2-(9H-carbazol-9-yl)acetyl)-N-isopropylhydrazine-1-carbothioamide], in that order: 186 to 188 °C, greater than 20 µM and 15.9 ± 2.07 µM.
The compound `C=CCNC(=S)NNC(=O)Cn1c2ccccc2c2ccccc21` [Compound 4y, 2-(2-(9H-carbazol-9-yl)acetyl)-N-allylhydrazine-1-carbothioamide] registered a melting point of 205 to 207 °C. In the data set on MCF-7 cell line, the IC50 was greater than 20 µM. This compound had a half-maximal inhibitory concentration (IC50) in data set [1] of 0.38 ± 0.05 µM.
For `CNC(=S)NNC(=O)Cn1c2ccccc2c2ccccc21` [Compound 4z, 2-(2-(9H-carbazol-9-yl)acetyl)-N-methylhydrazine-1-carbothioamide] the same measures were 173 to 175 °C, greater than 20 µM and 21.6 ± 0.87 µM.
As to `C[C@H]1c2cccc(O)c2C(=O)C2=C(O)[C@]3(O)C(=O)C(C(N)=O)=C(O)[C@@H](N(C)C)[C@@H]3[C@@H](O)[C@@H]21` [Doxycyline, reference compound], the MBC in the data set with Staphylococcus aureus was 63.0^a µM; in the data set with Escherichia coli, 50.9^a µM. Further, the MIC with Escherichia coli is reported as 5.09^a µM.
In the case of `Cc1c(C)c2c(c(C)c1O)CCC(C)(C(=O)O)O2` (centres unmarked) [Trolox, reference compound], the 50% inhibitory concentration (IC50) in data set [1] is 7.71 ± 1.47 µM.
For `OC(Cn1cncn1)(Cn1cncn1)c1ccc(F)cc1F` [fluconazole, reference compound], the MBC against Candida albicans worked out at 16.3 µM (≈ 4.99 µg/mL).
